In ChEMBL document CHEMBL3044641, “Design and synthesis of some novel 3-[5-(4-substituted) phenyl-1,3,4-oxadiazole-2yl]-2-phenylquinazoline-4(3H)-ones as possible anticonvulsant agent” (Med Chem Res, 2011):
Calls of active or inactive are those of the source. No cut-off for these calls is given here.

Experiments:
Mus musculus [1] = assay: Anticonvulsant activity in Mus musculus albino (mouse) assessed as protection against maximal electroshock-induced seizure at 300 mg/kg, ip after 0.5 hr; assay type: functional, organism-based; design: dose 300 mg/kg
Mus musculus [2] = assay: Anticonvulsant activity in Mus musculus albino (mouse) assessed as protection against subcutaneous metrazole-induced seizure at 300 mg/kg, ip after 4 hr; assay type: functional, organism-based; design: dose 300 mg/kg
Mus musculus [3] = assay: Anticonvulsant activity in Mus musculus albino (mouse) assessed as protection against subcutaneous metrazole-induced seizure at 300 mg/kg, ip after 0.5 hr; assay type: functional, organism-based; design: dose 300 mg/kg
Mus musculus [4] = assay: Neurotoxicity in ip dosed Mus musculus albino (mouse) assessed as minimal motor impairment after 0.5 hr by rotarod test; assay type: toxicity, organism-based; conditions: in vivo
Mus musculus [5] = assay: Anticonvulsant activity in Mus musculus albino (mouse) assessed as protection against maximal electroshock-induced seizure at 300 mg/kg, ip after 4 hr; assay type: functional, organism-based; design: dose 300 mg/kg
Mus musculus [6] = assay: Neurotoxicity in ip dosed Mus musculus albino (mouse) assessed as minimal motor impairment after 4 hr by rotarod test; assay type: toxicity, organism-based; conditions: in vivo
Mus musculus [7] = assay: Neurotoxicity in Mus musculus albino (mouse) assessed as minimal motor impairment at 300 mg/kg, ip after 4 hr by rotarod test; assay type: toxicity, organism-based; design: dose 300 mg/kg, route intraperitoneal; conditions: in vivo
Mus musculus [8] = assay: Anticonvulsant activity in ip dosed Mus musculus albino (mouse) assessed as protection against maximal electroshock-induced seizure after 4 hr; assay type: functional; conditions: read-out: MED
Mus musculus [9] = assay: Anticonvulsant activity in ip dosed Mus musculus albino (mouse) assessed as protection against maximal electroshock-induced seizure after 0.5 hr; assay type: functional; conditions: read-out: MED
Mus musculus [10] = assay: Neurotoxicity in Mus musculus albino (mouse) assessed as minimal motor impairment at 300 mg/kg, ip after 0.5 hr by rotarod test; assay type: toxicity, organism-based; design: dose 300 mg/kg, route intraperitoneal; conditions: in vivo
Mus musculus [11] = assay: Anticonvulsant activity in ip dosed Mus musculus albino (mouse) assessed as protection against subcutaneous metrazole-induced seizure after 4 hr; assay type: functional; conditions: read-out: MED
Mus musculus [12] = assay: Anticonvulsant activity in ip dosed Mus musculus albino (mouse) assessed as protection against subcutaneous metrazole-induced seizure after 0.5 hr; assay type: functional; conditions: read-out: MED

Which results are given for COc1ccc(-c2nnc(-n3c(-c4ccccc4)nc4ccccc4c3=O)o2)cc1?
Activity (Mus musculus [1]): inactive; Activity (Mus musculus [2]): inactive; Activity (Mus musculus [3]): inactive; Activity (Mus musculus [4]): 300 mg/kg; Activity (Mus musculus [5]): inactive; Activity (Mus musculus [6]): 300 mg/kg

With O=c1c2ccccc2nc(-c2ccccc2)n1-c1nnc(-c2ccc(F)cc2)o1 as the molecule, how does the Activity (Mus musculus [7]) read?
Its Activity is “Non-toxic”.

What about the Activity (Mus musculus [2]) of the same molecule?
The Activity was “inactive”.

And the minimal effective dose (Mus musculus [8])?
The minimal effective dose was 300 mg/kg.

What about the minimal effective dose (Mus musculus [9]) of the same molecule?
The minimal effective dose was 300 mg/kg.

What about the Activity (Mus musculus [3]) of the same molecule?
The Activity was “inactive”.

What about the Activity (Mus musculus [4]) of the same molecule?
The Activity was 300 mg/kg.

How did the Activity (Mus musculus [1]) turn out when Cc1ccc(-c2nnc(-n3c(-c4ccccc4)nc4ccccc4c3=O)o2)cc1 was run?
The Activity was “inactive”.

What about the Activity (Mus musculus [2]) of the same molecule?
The Activity was “inactive”.

And the Activity (Mus musculus [10])?
The Activity was “Non-toxic”.

And the Activity (Mus musculus [3])?
Its Activity is “inactive”.

What about the Activity (Mus musculus [5]) of the same molecule?
The Activity was “inactive”.

And the Activity (Mus musculus [6])?
The Activity was 300 mg/kg.

How did the Activity (Mus musculus [7]) turn out when O=c1c2ccccc2nc(-c2ccccc2)n1-c1nnc(-c2ccccc2)o1 was run?
Its Activity is “Non-toxic”.

And the Activity (Mus musculus [2])?
Its Activity is “inactive”.

And the Activity (Mus musculus [10])?
The Activity was “Non-toxic”.

What about the minimal effective dose (Mus musculus [9]) of the same molecule?
Its minimal effective dose is 300 mg/kg.

And the Activity (Mus musculus [3])?
The Activity was “inactive”.

And the Activity (Mus musculus [5])?
The Activity was “inactive”.

What does the source list for NC(=O)N1c2ccccc2C=Cc2ccccc21 [CARBAMAZEPINE]?
minimal effective dose (Mus musculus [11]): 300 mg/kg; minimal effective dose (Mus musculus [8]): 100 mg/kg; minimal effective dose (Mus musculus [12]): 100 mg/kg; minimal effective dose (Mus musculus [9]): 30 mg/kg; Activity (Mus musculus [4]): 100 mg/kg; Activity (Mus musculus [6]): 300 mg/kg

What does the source list for O=C1NC(=O)C(c2ccccc2)(c2ccccc2)N1 [PHENYTOIN]?
Activity (Mus musculus [2]): inactive; minimal effective dose (Mus musculus [8]): 30 mg/kg; minimal effective dose (Mus musculus [9]): 30 mg/kg; Activity (Mus musculus [3]): inactive; Activity (Mus musculus [4]): 100 mg/kg; Activity (Mus musculus [6]): 100 mg/kg

O=c1c2ccccc2nc(-c2ccccc2)n1-c1nnc(-c2ccc([N+](=O)[O-])cc2)o1 was tested. Which Activity (Mus musculus [1]) did it give?
The Activity was “inactive”.

And the Activity (Mus musculus [2])?
The Activity was “inactive”.

And the Activity (Mus musculus [3])?
The Activity was “inactive”.

And the Activity (Mus musculus [4])?
Its Activity is 300 mg/kg.

And the Activity (Mus musculus [5])?
The Activity was “inactive”.

And the Activity (Mus musculus [6])?
Its Activity is 300 mg/kg.

Which Activity (Mus musculus [7]) does the source give for O=c1c2ccccc2nc(-c2ccccc2)n1-c1nnc(-c2ccc(Cl)cc2)o1 here?
Its Activity is “Non-toxic”.

What about the Activity (Mus musculus [1]) of the same molecule?
Its Activity is “inactive”.

What about the Activity (Mus musculus [2]) of the same molecule?
Its Activity is “inactive”.

And the Activity (Mus musculus [10])?
Its Activity is “Non-toxic”.

What about the Activity (Mus musculus [3]) of the same molecule?
The Activity was “inactive”.

What about the Activity (Mus musculus [5]) of the same molecule?
The Activity was “inactive”.
